Reference: ChEMBL document CHEMBL3988442, “University of Dundee, Small-Polar-MMV Screening Library” (2021)
Values joined by “and” are separate entries in the source; they are usually repeats but may differ in a detail not shown here. Equal values may be shown once.

Legend:
[1] = target: Polyketide synthase Pks13 (Mycobacterium tuberculosis (strain ATCC 25618 / H37Rv), UniProt I6X8D2); test: Mycobacterium tuberculosis Polyketide synthase 13 Thioesterase (PKS13); format: functional
[2] = target: ClpP1P2 (Mycobacterium tuberculosis (strain ATCC 25618 / H37Rv), UniProt P9WPC3+P9WPC5); test: in vitro assay to detect presence of AMC directly proportional to the activity of ClpP1P2. GHDDI collaboration.; format: functional
[3] = microbe, parasite or virus in culture; conditions: Mycobacterium tuberculosis, 72 h, read-out: pIC50 (converted)
[4] = microbe, parasite or virus in culture; conditions: Mycobacterium tuberculosis, 96 h, read-out: pIC50 (converted)
[5] = tested on: Plasmodium falciparum; test: Calibr Malaria Delayed Death Assay SOP; format: functional, organism-based; conditions: for IC50: Plasmodium falciparum

Chain of ClpP1P2 (P9WPC5 whole entry): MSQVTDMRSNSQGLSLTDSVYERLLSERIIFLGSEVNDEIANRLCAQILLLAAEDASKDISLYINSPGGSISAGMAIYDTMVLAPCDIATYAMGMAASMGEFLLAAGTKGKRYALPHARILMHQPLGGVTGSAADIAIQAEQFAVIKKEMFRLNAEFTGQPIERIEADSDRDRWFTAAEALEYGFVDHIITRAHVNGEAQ
Chain of ClpP1P2 (P9WPC3 whole entry): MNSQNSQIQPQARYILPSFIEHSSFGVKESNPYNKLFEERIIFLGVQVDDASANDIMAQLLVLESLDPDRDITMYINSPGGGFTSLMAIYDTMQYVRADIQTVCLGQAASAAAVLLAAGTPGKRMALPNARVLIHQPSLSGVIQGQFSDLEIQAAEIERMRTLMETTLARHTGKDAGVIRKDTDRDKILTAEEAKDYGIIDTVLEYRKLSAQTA
Chain of Polyketide synthase Pks13 (I6X8D2 whole entry): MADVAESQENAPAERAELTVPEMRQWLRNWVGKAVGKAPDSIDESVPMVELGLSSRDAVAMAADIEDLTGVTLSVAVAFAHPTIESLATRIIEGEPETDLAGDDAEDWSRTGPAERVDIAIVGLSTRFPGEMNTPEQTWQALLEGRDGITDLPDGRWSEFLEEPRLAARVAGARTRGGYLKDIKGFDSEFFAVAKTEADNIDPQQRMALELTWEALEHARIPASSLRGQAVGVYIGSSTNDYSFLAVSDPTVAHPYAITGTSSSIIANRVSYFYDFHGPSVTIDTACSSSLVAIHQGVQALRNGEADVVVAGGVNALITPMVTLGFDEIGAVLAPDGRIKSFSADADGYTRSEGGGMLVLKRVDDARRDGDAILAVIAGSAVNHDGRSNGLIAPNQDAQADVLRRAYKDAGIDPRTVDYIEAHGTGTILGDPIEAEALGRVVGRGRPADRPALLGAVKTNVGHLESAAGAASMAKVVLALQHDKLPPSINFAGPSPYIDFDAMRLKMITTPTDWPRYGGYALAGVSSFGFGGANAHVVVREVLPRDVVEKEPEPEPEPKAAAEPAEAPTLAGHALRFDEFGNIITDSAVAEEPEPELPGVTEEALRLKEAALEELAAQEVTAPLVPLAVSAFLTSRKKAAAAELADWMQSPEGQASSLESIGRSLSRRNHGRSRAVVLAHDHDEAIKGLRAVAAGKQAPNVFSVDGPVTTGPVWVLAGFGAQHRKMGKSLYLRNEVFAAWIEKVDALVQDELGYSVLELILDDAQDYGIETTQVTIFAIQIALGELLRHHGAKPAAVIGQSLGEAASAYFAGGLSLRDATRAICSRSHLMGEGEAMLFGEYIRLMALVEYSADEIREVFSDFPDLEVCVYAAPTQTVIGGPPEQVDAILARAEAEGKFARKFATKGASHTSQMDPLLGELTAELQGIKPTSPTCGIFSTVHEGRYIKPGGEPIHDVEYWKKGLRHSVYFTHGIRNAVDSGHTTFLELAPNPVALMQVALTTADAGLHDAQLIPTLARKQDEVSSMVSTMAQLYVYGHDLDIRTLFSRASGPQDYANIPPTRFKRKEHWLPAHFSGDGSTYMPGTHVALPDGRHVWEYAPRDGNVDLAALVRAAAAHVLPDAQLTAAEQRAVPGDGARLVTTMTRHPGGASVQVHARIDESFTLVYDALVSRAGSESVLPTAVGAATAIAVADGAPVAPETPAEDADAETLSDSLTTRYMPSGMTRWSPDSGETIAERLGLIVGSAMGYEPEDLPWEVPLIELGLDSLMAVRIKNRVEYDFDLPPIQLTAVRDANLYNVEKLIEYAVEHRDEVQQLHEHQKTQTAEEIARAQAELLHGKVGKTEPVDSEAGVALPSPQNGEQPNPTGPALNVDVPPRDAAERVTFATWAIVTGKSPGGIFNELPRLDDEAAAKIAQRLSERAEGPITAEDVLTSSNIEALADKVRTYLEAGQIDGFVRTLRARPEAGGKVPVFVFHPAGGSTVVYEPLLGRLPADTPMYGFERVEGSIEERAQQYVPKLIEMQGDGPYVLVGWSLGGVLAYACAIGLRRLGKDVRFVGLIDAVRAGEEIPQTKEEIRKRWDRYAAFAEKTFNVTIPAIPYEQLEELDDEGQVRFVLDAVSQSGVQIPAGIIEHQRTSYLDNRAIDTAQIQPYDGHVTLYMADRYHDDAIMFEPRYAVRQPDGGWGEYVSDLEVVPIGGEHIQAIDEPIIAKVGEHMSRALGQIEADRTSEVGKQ

Compound	IC50 [1]	also measured
CC(C)Nc1nc2c(cc1C(=O)NCC1CC1)CCNCC2	19.7 µM and 19.3 µM	IC50 [2]: > 100 µM
CNC(=O)N1CCc2cc(C(=O)NCC3CC3)c(NC(C)C)nc2CC1	10.7 µM and 18.7 µM	IC50 [2]: > 100 µM
COc1ccccc1-c1ccnc2nc(N3CCCCC3)[nH]c(=O)c12	10.9 µM and 13.9 µM	IC50 [2]: > 100 µM
O=C(O)c1cn(-c2ccccn2)c(=O)c2ccccc12	8.93 µM and 20.5 µM	IC50 [2]: > 100 µM
Cc1nc(C)n(C2CCCN(C(=O)c3nc(C)n4ccccc34)C2)n1 (stereo not drawn)	8.78 µM and 12.7 µM	IC50 [2]: > 100 µM
CNC(=O)c1cc2c(nc1NCC1CC1)CCNCC2	72 µM and 24.7 µM	IC50 [2]: > 100 µM
COc1ccc(CCC(C)Nc2cccc(SC)c2)cc1 (stereo not drawn)	23 µM and 23.6 µM	IC50 [3]: 14.1 µM; IC50 [4]: 14.3 µM
COCc1noc(-c2ccc(N(C)Cc3ccc(C)o3)nc2)n1	> 100 µM	IC50 [4]: 18.1 µM
CCOC(=O)N1CCN(C(=O)C2CC(=O)N(c3ccccc3Br)C2)CC1 (stereo not drawn)	19.4 µM and 22.4 µM	IC50 [3]: 39.8 µM; IC50 [4]: 9.89 µM
COc1ccc(CC(C)Nc2cccc(SC)c2)cc1 (stereo not drawn)	24.5 µM and 22 µM	IC50 [3]: > 50.1 µM; IC50 [4]: 45.4 µM
N#Cc1nccnc1N1CCC(CSc2ccccc2)C1 (stereo not drawn)	18.6 µM and 20.2 µM	IC50 [3]: 18.9 µM; IC50 [4]: 4.96 µM
CCOc1cc(C(=O)n2cc(C)cn2)cc(OCC)c1OCC	19.9 µM and 11.2 µM	IC50 [3]: 29.7 µM; IC50 [4]: > 50.1 µM
c1csc(-c2noc(CCCN3CCCC3Cn3cncn3)n2)c1 (stereo not drawn)	> 100 µM	–
O=C(O)CSc1nccc(-c2ccc3c(c2)OCO3)n1	16.4 µM and 18.6 µM	–
CCCn1nnc(NCc2ccc(-c3ccc(Br)cc3)o2)n1	29.6 µM and > 100 µM	–
CC(=O)N1CCC(NC(=O)c2cc(Cl)ccc2O)CC1	> 100 µM and 80.2 µM	–
CC(=O)N1N=C(c2ccco2)OC1C(=O)NCC(C)C (stereo not drawn)	> 100 µM	–
CCOCC1CCCN(C(=O)NCc2ccc(-c3ccn[nH]3)cc2)C1 (stereo not drawn)	> 100 µM	–
CCc1nnc(Nc2cccc(C3CCN(C(C)=O)CC3)n2)s1	> 100 µM	–
CC(C)(C)c1cc(NC(=O)CN2CCC(N3CCNC3=O)CC2)on1	> 100 µM	–
Cn1ccc(C(=O)NCc2cccc(NC(=O)C3CCC3)c2)cc1=O	> 100 µM	–
COC(=O)c1ccc(NC2CCN(CC(F)(F)F)C2=O)cc1C (stereo not drawn)	> 100 µM	–
O=C1CNc2ncnc(N3CCN(Cc4ccccc4F)CC3)c2N1	> 100 µM	–

Compound	IC50 [1]	also measured
CCc1ccc(S(=O)(=O)NCC2CCN(c3cnccn3)CC2)s1	18.4 µM and 29.5 µM	–
O=C(O)C1c2nc[nH]c2CCN1Cc1ccccc1-c1ccccc1 (stereo not drawn)	> 100 µM	–
CSCc1ccc(N2CCC(C(O)Cc3ccccc3)CC2)nc1 (stereo not drawn)	> 100 µM	–
COc1ccc2nc(C3CC3)cc(C(=O)NCc3noc(C)n3)c2c1	21.6 µM and 21.4 µM	–
Cc1cccn2c(=O)cc(CSCC(=O)Nc3nnc(C(C)C)s3)nc12	> 100 µM	–
O=C(Nc1cc(CSCCO)ccn1)c1ccc(Cl)o1	> 100 µM and 98.1 µM	–
CCOCCN1CCN([C@@H]2c3ccccc3C3(CCNCC3)[C@H]2O)CC1	> 100 µM	–
Cc1ccnc(OC[C@]23COC[C@H]2CN(C(=O)c2ncccn2)C3)n1	> 100 µM	–
COc1ccc2c(C(=O)N(C)C)cc(-c3cnc(N)nc3)nc2c1	30.4 µM and 38.7 µM	–
CCc1[nH]c2c(CNc3nc(C)cc(NC)n3)cc(C)cc2c1C	> 100 µM	IC50 [3]: 23.7 µM; IC50 [4]: 30.7 µM; pIC50 [5]: 6.194; IC50 [5]: 0.657 µM
N#Cc1ccc(C(=O)O)nc1/C=C/c1cccc(Cl)c1	> 100 µM	–
N#Cc1cccnc1N1CCCC(CO)(Cc2cccc(Cl)c2)C1 (stereo not drawn)	26.7 µM and 23.5 µM	–
OCC1(CCOc2ccccc2)CCCN(c2ccc(Cl)cn2)C1 (stereo not drawn)	29 µM and 32.3 µM	–
Cc1ccccc1S(=O)(=O)N[C@@H]1CC[C@@H](N2CCNC(=O)C2)[C@@H]1O	> 100 µM	–
Cn1cncc1-c1nnc([C@H]2CCN(Cc3ncc[nH]3)C2)o1	> 100 µM	–
CNc1cncc(C2CCCN2c2cc(C)ncn2)n1 (stereo not drawn)	20.5 µM and 30.5 µM	–
CCNc1ncc(C(=O)N2CCc3c(nc(C)nc3N(C)C)C2)cn1	> 100 µM	–
O=C(O)c1csc(S(=O)(=O)Nc2cccc(OCC(F)(F)F)c2)c1	36 µM and 20.4 µM	–
COc1cc2nc(NCc3cc(C)on3)nc(N)c2cc1OC	> 100 µM and 89.5 µM	–
CC(O)CN1CCC(CNCc2c[nH]nc2C(C)(C)C)CC1 (stereo not drawn)	> 100 µM	IC50 [3]: 45.6 µM; IC50 [4]: 35.4 µM
Cc1cn2c(=O)c(-c3ccnc(N4CCC[C@@H]4CO)n3)cnc2s1	> 100 µM	–
O=c1[nH]c(NC2CCCC2)nc2nccc(-c3cccs3)c12	8.33 µM and 21.7 µM	–
CC(=O)N1CCCC1c1ccc(Br)cn1 (stereo not drawn)	> 100 µM	–

Compound	IC50 [1]	also measured
CCc1cccc(NS(=O)(=O)c2cc(C)c(C(=O)O)s2)c1	16.6 µM and 11.6 µM	–
COCc1nc(C(=O)OCC2CCN(c3ccccc3)C2)cs1 (stereo not drawn)	> 100 µM and 16 µM	–
Cn1cc(-c2cc(C(F)F)n3nc(CCC(=O)O)nc3n2)cn1	12 µM and 19.8 µM	–
CSc1ccc2cc(CN(C)CCO)c(=O)[nH]c2c1	31.4 µM	–
Cc1nn(C)cc1C1=NS(=O)(=O)N(C)C(C(=O)Nc2ccc(Br)cc2)=C1	28.6 µM and 36.6 µM	pIC50 [5]: 6.699; IC50 [5]: 0.238 µM
Cc1nn(C)cc1-c1ccnc(N(C)Cc2ccoc2)n1	> 100 µM	–
Cc1cc(S(=O)(=O)Nc2cccc(I)c2)sc1C(=O)O	6.1 µM and 15.1 µM	–
Cn1cc(-c2ncc3c(c2C(=O)O)CCN(CC2CCOC2)C3)cn1 (stereo not drawn)	> 100 µM	–
Cc1cnn(CC(C)NCC(=O)NCCOc2ccccc2)c1 (stereo not drawn)	> 100 µM	–
Cc1nc2c(Nc3cccc(C#N)c3)nc(N)nc2n1C	> 100 µM	IC50 [3]: 3.75 µM; IC50 [4]: 4.14 µM
O=C(Nc1nc2c(s1)CN(S(=O)(=O)C1CC1)CC2)c1cccc(Cl)c1	12.2 µM and 20.2 µM	–
CCN(CC)C(=O)c1cc(C2CCCN2C)ccn1 (stereo not drawn)	> 100 µM	–
Cc1ncc(CNCC(C)O)c2cc(C(=O)c3ccc(Br)cc3)oc12 (stereo not drawn)	> 100 µM	–
COCCc1noc(-c2cn(CCc3ccccc3)nn2)n1	20.8 µM and 8.65 µM	–
O=C(c1cnc2c(cnn2C2CCCC2)c1)N1CCN(CCO)CC1	> 100 µM	–
COc1cccc(CN2CCC3(COCc4cnc(N(C)C)nc43)C2)c1 (stereo not drawn)	> 100 µM	IC50 [3]: > 50.1 µM; IC50 [4]: > 50.1 µM
Cc1ccc(-c2cc(C(=O)NCCCc3csc(N)n3)[nH]n2)s1	9.27 µM and 17 µM	–
CN1CC2(CCCN(Cc3nnc(-c4ccco4)o3)CC2)OC1=O (stereo not drawn)	> 100 µM	–
Cc1cc(C2CCCCN2C(=O)c2ccsc2)nc2nccn12 (stereo not drawn)	> 100 µM	–
Cc1ccc(C(=O)N2CCC3(CC2)c2ccccc2[C@@H](N)[C@@H]3O)c(=O)[nH]1	> 100 µM	–
NC(=O)N1CCCN(CCc2nc(-c3cccc(Cl)c3)no2)CC1	> 100 µM	–
O=C(Cc1cccc(F)c1)N1CCc2ncnc(NC3CC3)c2CC1	> 100 µM	–
Cc1ccc(CNC(=O)C2CCCCN2C(=O)OC(C)(C)C)cn1 (stereo not drawn)	> 100 µM	–

Compound	IC50 [1]	also measured
N#Cc1c(N2CCCN(C3CCOCC3)CC2)nc2ccccn12	> 100 µM	–
CCOCC1CN(C(=O)c2cccs2)Cc2cnn(CC3CC3)c21 (stereo not drawn)	> 100 µM	–
Cc1ccc2nc(C(=O)N(C)[C@@H]3CC[C@@H](N4CCCC4)[C@@H]3O)cn2c1	> 100 µM	–
O=C(CCc1cc(Cl)no1)N1CCC(c2cc3ncccc3cn2)CC1	> 100 µM	–
CC(C)c1nc(CN2CCc3onc(-c4cccc(F)c4)c3C2)no1	> 100 µM	–
O=C(Nc1cnc(N2CCOCC2)nc1)c1ccc(C(F)(F)F)cc1	22.3 µM and 20.4 µM	–
O=C1CC(NCc2cnc(N3CCCC3)nc2)CN1c1ccccc1 (stereo not drawn)	> 100 µM	–
CC(=O)c1ccc(N2CCCC(CO)(CCc3ccccc3)C2)nc1 (stereo not drawn)	72.2 µM and 69.8 µM	–
Cc1n[nH]c(C)c1CCN(C)c1ccc(-c2nc(C3CC3)no2)cn1	> 100 µM	–
CCn1c(SCC(=O)N2CCCC2)nc2cc(C)[nH]c2c1=O	> 100 µM	–
NC(=O)c1cc(C2CC2)nc2ccc(F)cc12	> 100 µM	–
CCN(Cc1nc2c(cnn2C)c(=O)[nH]1)c1ccccc1	> 100 µM	–
Cn1ncc2c1CN(Cc1cccnc1)CC2COCC1CC1 (stereo not drawn)	> 100 µM	–
CCOC(=O)CNC(=O)NCc1cc(C)n(-c2ccccc2OC)c1C	> 100 µM	–
COCCN1CCCC2(CCN(c3nccnc3N(C)C)C2)C1=O (stereo not drawn)	> 100 µM	–
Cc1nc(CN(C)C(=O)NC(C)c2ccc3c(c2)OCCO3)cs1 (stereo not drawn)	> 100 µM	–
Cc1nc(-c2ccc(Cl)s2)sc1C(=O)NCCS(N)(=O)=O	33.3 µM and 21 µM	–
CC(C)(C)C(=O)N1CCC(n2nc(-c3ccco3)ccc2=O)CC1	> 100 µM	–
CNc1cncc(C2CCCN2C(=O)Cn2c(=O)oc3ccccc32)n1 (stereo not drawn)	30.2 µM and > 57.5 µM	–
COc1cccc(C(=O)N2CCc3c(nc(N)[nH]c3=O)C2)c1C	> 100 µM	–
